Measured values from US20050202511A1, “AMP-activated protein kinase (AMPK) inhibitor screening assay” (priority 2002, published 2005).

Experiments:
AMPK-γ2 CBS3-4 construct = biological target: T1, AMPK-γ2 CBS3-4 construct (Homo sapiens, UniProt Q9UGJ0); assay: Displacement of AMP by AMP-S (competitive binding assay)
T1 construct: the C-terminal pair (CBS3-4, residues 430-556); made in house; host or cells: E. coli BL21 (DE3), vector pGEX-KG
Procedure: (§1) Various concentrations of [^14C]-AMP, [γ^32P] […] Reactions were stopped by spotting 10 ìl onto a Millipore MF Filter Membrane disc and rapidly washing under high vacuum with 1 ml of ice-cold TBS. Radioactivity was determined on the filters by scintillation counting. Non-specific binding (which was trivial) was determined by performing the assay with GST as a control, and was subtracted. […] Data were fitted to the binding models given in the text, using GraphPad Prism 3. Estimates of parameters resulting from fits are quoted in the text and Table 1±standard error, and the curves shown in figures are theoretical curves obtained using those estimates.

AMPK = assay: Activation of AMPK (data not shown); format: biochemical; settings: read-out: concentration giving half-maximal activation
[1] = biological target: T2, cystathionine â-synthase CBS1-2 (WT) (Homo sapiens, UniProt P35520); assay: Filter binding assay, GST-CBS domain fusion; settings: single-site model
T2 construct: 416-551 of cystathionine â-synthase; made in house; host or cells: E. coli BL21 (DE3)
Text: (§2) Finally, DNA encoding the C-terminal CBS domain pair from the enzyme cystathionine â-synthase was cloned and expressed.
(§3) For IMPDH2, DNAs encoding residues 112-232 or the full-length protein (1-514) were amplified using human liver cDNA (Clontech) as template, and cloned into pHAT20 (Clontech) using 5′-AgeI and 3′-KpnI sites added to the primers. For the other constructs, DNAs encoding residues 582-840 of CLC2, or 416-551 of cystathionine â-synthase, were amplified using human liver cDNA as template, and cloned into pGEX-KG as above using 5′-BamHI and 3′-XhoI sites added to the primers. All mutations were created using the Stratagene QuikChange Site-directed Mutagenesis system.
as §1

[2] = biological target: T3, cystathionine â-synthase CBS domain pair D444N (Homo sapiens, UniProt P35520, D444N); assay: Filter binding assay, GST-CBS domain fusion
T3 construct: 416-551 of cystathionine â-synthase; made in house; host or cells: E. coli BL21 (DE3)
Text: as §2, §3, §1

[3] = biological target: cystathionine â-synthase D444N mutant (Homo sapiens, UniProt P35520, D444N); settings: concentrations of SAM up to 300 μM; cited from earlier work
[4] = biological target: wild type cystathionine â-synthase (Homo sapiens, UniProt P35520); settings: read-out: half-maximal effect (activation); cited from earlier work

T1 sequence (Q9UGJ0 430-556): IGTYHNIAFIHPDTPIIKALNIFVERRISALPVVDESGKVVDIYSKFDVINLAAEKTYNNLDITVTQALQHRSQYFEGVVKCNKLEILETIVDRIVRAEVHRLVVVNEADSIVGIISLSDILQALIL

Compound: Nc1ncnc2c1ncn2[C@@H]1O[C@H](COP(O)(O)=S)[C@@H](O)[C@H]1O [AMP-S, adenosine 5′-O-monothiophosphate]
- Kd fold lower than the Kd of CBS3-4 for AMP (AMPK-γ2 CBS3-4 construct): 2 fold
- Kd (AMPK-γ2 CBS3-4 construct; read-out: Kd from single site competitive binding model): 48 ± 12 µM
- EC50 (AMPK): 3.1 µM

Compound: C[S+](CC[C@H](N)C(=O)O)C[C@H]1O[C@@H](n2cnc3c(N)ncnc32)[C@H](O)[C@@H]1O (some centres unmarked) [S-adenosyl methionine]
- Kd [1]: 34 µM
- increase in Kd relative to wild type [2]: 15 fold
- Kd ([2]; single-site model): 510 ± 70 µM
- activation [3]: not significantly activated
- EC50 [4]: ~20 µM
